#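 Values below derive from 48-hour exposures of cells grown in 96-well plates, with endpoints linearly interpolated between the two concentrations bracketing the appropriate inhibition level. The concentration for 50% growth inhibition is given as GI50. TGI: total growth inhibition.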
# How the values were obtained:
# Assay in all cases: NCI anticancer screen, dose series, 48 h
# SN12C renal = tested on: SN12C renal
# NCI-H23 lung = tested on: NCI-H23 lung
# U251 CNS = tested on: U251 CNS
# HOP-92 NSCLC = tested on: HOP-92 NSCLC
# ACHN renal = tested on: ACHN renal
# SF-295 CNS = tested on: SF-295 CNS
# SR leukemia = tested on: SR leukemia
# SK-MEL-28 melanoma = tested on: SK-MEL-28 melanoma
# SF-539 CNS = tested on: SF-539 CNS
# KM12 colon = tested on: KM12 colon
# NCI-H460 lung = tested on: NCI-H460 lung
# SF-268 CNS = tested on: SF-268 CNS
# UO-31 renal = tested on: UO-31 renal
# DU-145 prostate = tested on: DU-145 prostate
# RPMI-8226 leukemia = tested on: RPMI-8226 leukemia
# K-562 leukemia = tested on: K-562 leukemia
# OVCAR-8 ovarian = tested on: OVCAR-8 ovarian
# SW-620 colon = tested on: SW-620 colon
# OVCAR-3 ovarian = tested on: OVCAR-3 ovarian
# M14 melanoma = tested on: M14 melanoma
# RXF 393 renal = tested on: RXF 393 renal
# MDA-MB-468 breast = tested on: MDA-MB-468 breast
# MCF7 breast = tested on: MCF7 breast
# OVCAR-5 ovarian = tested on: OVCAR-5 ovarian
# CCRF-CEM leukemia = tested on: CCRF-CEM leukemia
# MDA-MB-435 = tested on: MDA-MB-435
# SNB-75 CNS = tested on: SNB-75 CNS
# UACC-62 melanoma = tested on: UACC-62 melanoma
# MOLT-4 leukemia = tested on: MOLT-4 leukemia
smiles,measurement,setting,value
COc1cc2cc(C(=O)N3C[C@@H](CCl)c4c3cc(OC(=O)N(CCC(=O)N3CCN(C)CC3)C3CCCCC3)c3ccccc43)[nH]c2c(OC)c1OC,GI50,SN12C renal,1200 nM
same,TGI,SN12C renal,10200 nM
same,GI50,NCI-H23 lung,471 nM
same,TGI,NCI-H23 lung,1930 nM
same,GI50,U251 CNS,1510 nM
same,TGI,U251 CNS,4460 nM
same,GI50,HOP-92 NSCLC,2500 nM
same,TGI,HOP-92 NSCLC,9460 nM
same,GI50,ACHN renal,493 nM
same,TGI,ACHN renal,10700 nM
same,GI50,SF-295 CNS,1550 nM
same,TGI,SF-295 CNS,6790 nM
same,GI50,SR leukemia,276 nM
same,TGI,SR leukemia,1930 nM
same,GI50,SK-MEL-28 melanoma,3580 nM
same,TGI,SK-MEL-28 melanoma,8960 nM
same,GI50,SF-539 CNS,1310 nM
same,TGI,SF-539 CNS,3870 nM
same,GI50,KM12 colon,2070 nM
same,TGI,KM12 colon,7250 nM
same,GI50,NCI-H460 lung,512 nM
same,TGI,NCI-H460 lung,10700 nM
same,GI50,SF-268 CNS,1540 nM
same,TGI,SF-268 CNS,7450 nM
same,GI50,UO-31 renal,1880 nM
same,TGI,UO-31 renal,6340 nM
same,GI50,DU-145 prostate,456 nM
same,TGI,DU-145 prostate,4630 nM
same,GI50,RPMI-8226 leukemia,1470 nM
same,TGI,RPMI-8226 leukemia,5080 nM
same,GI50,K-562 leukemia,677 nM
same,TGI,K-562 leukemia,20300 nM
same,GI50,OVCAR-8 ovarian,1660 nM
same,TGI,OVCAR-8 ovarian,10100 nM
same,GI50,SW-620 colon,1890 nM
same,TGI,SW-620 colon,12600 nM
same,GI50,OVCAR-3 ovarian,2100 nM
same,TGI,OVCAR-3 ovarian,4670 nM
same,GI50,M14 melanoma,1520 nM
same,TGI,M14 melanoma,4240 nM
same,GI50,RXF 393 renal,1060 nM
same,TGI,RXF 393 renal,2460 nM
same,GI50,MDA-MB-468 breast,688 nM
same,TGI,MDA-MB-468 breast,2290 nM
same,GI50,MCF7 breast,318 nM
same,TGI,MCF7 breast,2630 nM
same,GI50,OVCAR-5 ovarian,5110 nM
same,TGI,OVCAR-5 ovarian,27900 nM
same,GI50,CCRF-CEM leukemia,993 nM
same,TGI,CCRF-CEM leukemia,12100 nM
same,GI50,MDA-MB-435,1780 nM
same,TGI,MDA-MB-435,3650 nM
same,GI50,SNB-75 CNS,1290 nM
same,TGI,SNB-75 CNS,3700 nM
same,GI50,UACC-62 melanoma,1530 nM
same,TGI,UACC-62 melanoma,3280 nM
same,GI50,MOLT-4 leukemia,594 nM
same,TGI,MOLT-4 leukemia,10100 nM

# From PubChem BioAssay (NCI)
